System: transplanted human mammary carcinoma which expresses epidermal growth factor receptor tyrosine kinase (EGFR)
Conditions: athymic nude mice; background statement; cited from earlier work

| Structure (SMILES) | growth of transplanted human mammary carcinoma expressing EGFR |
| --- | --- |
| O=CN/C=C/c1cc(O)ccc1O [erbstatin] | selectively attenuates the growth |

System: another carcinoma which does not express the EGF receptor
Conditions: athymic nude mice; background statement; cited from earlier work

| Structure (SMILES) | growth of carcinoma which does not express the EGF receptor |
| --- | --- |
| O=CN/C=C/c1cc(O)ccc1O [erbstatin] | without effect on the growth |

System: not given
Conditions: not given

| melting point | Structure (SMILES) |
| --- | --- |
| 98 to 113 °C (dec.) | C#Cc1cccc(Nc2ncnc3cc(OCCOC)c(OCCSCC(=O)O)cc23)c1.N |
| 170 to 190 °C (dec.) | C#Cc1cc(Nc2ncnc3cc(OCCOC)c(OCCOC)cc23)ccc1F.Cl |
| 170 to 185 °C (dec.) | C#Cc1ccc(C)c(Nc2ncnc3cc(OCCOC)c(OCCOC)cc23)c1.Cl |
| 230 to 240 °C (dec.) | C#Cc1cccc(Nc2ncnc3cc(OCCCl)c(OCCCl)cc23)c1.Cl |
| 215 to 225 °C (dec.) | C#Cc1cccc(Nc2ncnc3cc(OCCOC)c(OCCCl)cc23)c1.Cl |
| 137 to 138 °C | C#Cc1cccc(Nc2ncnc3cc(OCCOC(C)=O)c(OCCOC(C)=O)cc23)c1 |
| 215 to 218 °C (dec.) | C#Cc1cccc(Nc2ncnc3cc(OCCO)c(OCCO)cc23)c1.Cl |
| 84 to 87 °C | C#Cc1cccc(Nc2ncnc3cc(OCCOC)c(OCCOC(C)=O)cc23)c1 |
| 225 to 235 °C (dec.) | C#Cc1cccc(Nc2ncnc3cc(OCCCl)c(OCCOC)cc23)c1.Cl |
| 134 to 135 °C | C#Cc1cccc(Nc2ncnc3cc(OCCOC(C)=O)c(OCCOC)cc23)c1 |
| 130 to 142 °C (dec.) | C#Cc1cccc(Nc2ncnc3cc(OCCN4CCN(C)CC4)c(OCCOC)cc23)c1.Cl.Cl |
| 220 to 227 °C (dec.) | C#Cc1cccc(Nc2ncnc3cc(OCCn4ccnc4)c(OCCOC)cc23)c1.Cl.Cl |
| 85 to 100 °C (dec.) | C#Cc1cccc(Nc2ncnc3cc(OCCOC)c(OCCn4ccnc4)cc23)c1.Cl.Cl |
| 115 to 130 °C (dec.) | C#Cc1cccc(Nc2ncnc3cc(OCCOC)c(OCCN4CCOCC4)cc23)c1.Cl.Cl |
| 256 to 257 °C | C#Cc1cccc(Nc2ncnc3ccc(C)cc23)c1.Cl |
| 95 to 103 °C (dec.) | C#Cc1cccc(Nc2ncnc3cc(OCCSC(C)C(=O)O)c(OCCOC)cc23)c1.N (stereo not shown) |
| 135 to 150 °C (dec.) | C#Cc1cccc(Nc2ncnc3cc(OCCOC)c(O)cc23)c1.Cl |
| 240 to 248 °C (dec.) | C#Cc1cccc(Nc2ncnc3cc(OCCn4ccc(=O)cc4)c(OCCOC)cc23)c1.Cl |
| 155 to 168 °C (dec.) | C#Cc1cccc(Nc2ncnc3cc(OCCOC)c(OCCn4ccc(=O)cc4)cc23)c1.Cl |
| 247 to 248 °C | C#Cc1cccc(Nc2ncnc3cc(OCCCC)c(OCCCC)cc23)c1.Cl |
